US8470883B2, “Preservative system and composition based on glycinate and hydroxyethyl sulfonate salt combination” (Conopco, Inc., priority 2010, dated 2013)

Test system: Pseudomonas aeruginosa ATCC 9027
Experiment: Challenge Test for the Evaluation of Preservative Capacity of Liquid Detergent and Personal Products
Type: cell-based
Settings: aqueous formula, each active component 5%, pH 7.6
Method: Experiments were conducted to evaluate antimicrobial activity against Pseudomonas aeruginosa of aqueous formulas containing sodium hydroxyethyl sulfonate, sodium cocoyl glycinate and combinations of these two materials. Samples were prepared at room temperature by mixing together sodium cocoyl glycinate and/or sodium hydroxyethyl sulfonate and water. The pH was adjusted by addition of aqueous hydrochloric acid to reach a 7.6 value. Amounts of each of the active components was 5%. Challenge Test for the Evaluation of Preservative Capacity of Liquid Detergent and Personal Products Pseudomonas aeruginosa ATCC 9027 obtained from American Type Culture Collection, Manassas, Va. 20108. 20 grams of product were inoculated with 0.2 ml of the microorganism at a level of 1.06E+07 or Log 7. A single inoculation was performed. At 2 day, 7 day, 14 day and 21 day time points after inoculation a 1 gram sample was aseptically removed into a neutralizing fluid (TAT Broth) and plated using Letheen Agar. The plates were incubated at 30° C. for 7 days. At the end of the incubation time the plates were removed and examined for microbial growth. The microorganisms recovered were converted into Log10 and compared to initial inoculum count which then determined the Log Reduction. Logarithmic functions are the inverse of exponential functions. Log reduction was determined by the initial inoculum count minus the counts at each sampling time point.

[1] = 2 day after single inoculation (1.06E+07, Log 7)
[2] = 7 day after single inoculation (1.06E+07, Log 7)
[3] = 14 day after single inoculation (1.06E+07, Log 7)
[4] = 21 day after single inoculation (1.06E+07, Log 7)

| Compound | Log Reduction Value [1] | Log Reduction Value [2] | Log Reduction Value [3] | Log Reduction Value [4] |
| --- | --- | --- | --- | --- |
| sodium cocoyl glycinate | 1.1 | 1.1 | 0.8 | 0.2 |
| O=S(=O)([O-])CCO.[Na+] [Sodium Hydroxyethyl Sulfonate, sodium hydroxyethyl sulfonate] | 1.1 | 0.9 | 0.8 | 0.5 |
